According to ChEMBL document CHEMBL4177682, “Indirubin derivatives protect against endoplasmic reticulum stress-induced cytotoxicity and down-regulate CHOP levels in HT22 cells” (Bioorg Med Chem Lett, 2017):
Calls of active or inactive are those of the source. No cut-off for these calls is given here.

Assays:
HT-22 [1] = assay: Cytoprotective activity against tunicamycin-induced cell death in mouse HT22 cells after 24 hrs by MTT assay; format: functional, cell-based; settings: for EC50: HT-22, 24 h
HT-22 [2] = assay: Cytotoxicity against mouse HT22 cells at 20 uM after 24 hrs by MTT assay; format: cell-based; settings: ht-22, 24 h
HT-22 [3] = assay: Cytoprotective activity against tunicamycin-induced cell death in mouse HT22 cells at 20 uM after 24 hrs by MTT assay; format: functional, cell-based
HT-22 [4] = assay: Cytoprotective activity against tunicamycin-induced cell death in mouse HT22 cells assessed as preservation of spindle shape morphology after 24 hrs by MTT assay; format: functional, cell-based
HT-22 [5] = assay: Effect on CHOP expression in mouse HT22 cells at 20 uM after 12 hrs by Western blot analysis; format: cell-based; settings: ht-22, 12 h
HT-22 [6] = assay: Suppression of TM-induced increase in CHOP expression in mouse HT22 cells at 20 uM after 12 hrs by Western blot analysis; format: functional, cell-based

SMILES	Activity (HT-22 [1])	Activity (HT-22 [2])	Activity (HT-22 [3])	EC50 (HT-22 [1]) [µM]	Activity (HT-22 [4])	Activity (HT-22 [5])	Activity (HT-22 [6])
O=C1Nc2c(O)cccc2/C1=C1/Nc2ccccc2C1=O	Dose-dependent effect						
COc1cc2c(cc1OC)/C(=C1/Nc3ccccc3C1=O)C(=O)N2	Dose-dependent effect						
O=C1Nc2ccc(Br)cc2/C1=C1/Nc2ccccc2/C1=N\O [INDIRUBIN 2]	Dose-dependent effect	Non-Toxic	Active	85.8	Active	Non-Toxic	Active
CC(C)c1ccc2c(c1)/C(=C1/Nc3ccccc3/C1=N\O)C(=O)N2	Dose-dependent effect		Active				
O=C1Nc2ccccc2/C1=C1/Nc2ccccc2/C1=N\O	Dose-dependent effect	Toxic	Active				
CC(=O)N1C(=O)/C(=C2\Nc3ccccc3C2=O)c2ccccc21	Dose-dependent effect	Non-Toxic	Active	9.8	Active	Non-Toxic	Active
O=C1Nc2ccc(Br)cc2/C1=C1/Nc2ccc(Br)cc2/C1=N\O	Dose-dependent effect	Toxic	Active				
O=C1Nc2ccc(O)cc2/C1=C1/Nc2ccccc2C1=O	Dose-dependent effect						
O=C1Nc2ccccc2/C1=C1/Nc2ccccc2C1=O [INDIRUBIN]	Dose-dependent effect	Toxic					
O=C1Nc2ccc(Br)cc2/C1=C1/Nc2ccc(Br)cc2C1=O	Dose-dependent effect	Non-Toxic	Active	21.3	Active	Non-Toxic	Active
O=C1Nc2ccccc2/C1=C1/Nc2cc(Br)ccc2C1=O	Dose-dependent effect						
Cc1ccc2c(c1)C(=O)/C(=C1/C(=O)Nc3ccccc31)N2	Dose-dependent effect						
CC(C)(C)c1ccc2c(c1)/C(=C1/Nc3ccccc3/C1=N\O)C(=O)N2	Dose-dependent effect		Active				
COc1ccc2c(c1)/C(=C1/Nc3ccccc3/C1=N\O)C(=O)N2	Dose-dependent effect		Active				
COc1ccc2c(c1)NC(=O)/C2=C1\Nc2ccccc2\C1=N/O	Dose-dependent effect		Active				
O=C1Nc2ccccc2/C1=C1/Nc2ccc(Br)cc2C1=O	Dose-dependent effect						
CCc1ccc2c(c1)C(=O)/C(=C1/C(=O)Nc3ccccc31)N2	Dose-dependent effect	Non-Toxic	Active	24.5	Active	Non-Toxic	Active
COc1ccc2c(c1)/C(=C1/Nc3ccccc3C1=O)C(=O)N2	Dose-dependent effect						
CC(C)(C)c1ccc2c(c1)/C(=C1/Nc3ccccc3C1=O)C(=O)N2	Dose-dependent effect						
O=C1Nc2ccccc2/C1=C1/Nc2cc(Br)ccc2/C1=N\O	Dose-dependent effect		Active				
O=C1Nc2cc(O)ccc2/C1=C1/Nc2ccccc2C1=O	Dose-dependent effect	Non-Toxic	Active	23.7	Active	Non-Toxic	Active
COc1cc2c(cc1OC)/C(=C1/Nc3ccccc3/C1=N\O)C(=O)N2	Dose-dependent effect		Active				

SMILES	Activity (HT-22 [1])	Activity (HT-22 [2])	Activity (HT-22 [3])	EC50 (HT-22 [1]) [µM]	Activity (HT-22 [4])	Activity (HT-22 [5])	Activity (HT-22 [6])
CN1C(=O)/C(=C2\Nc3ccccc3C2=O)c2ccc(Br)cc21			inactive				
O=C(O)Cc1ccc2c(c1)/C(=C1/Nc3ccccc3C1=O)C(=O)N2	Dose-dependent effect						
CN1C(=O)/C(=C2\Nc3ccccc3\C2=N/O)c2ccc(Br)cc21	Dose-dependent effect		Active				
COc1cccc2c1NC(=O)/C2=C1\Nc2ccccc2\C1=N/O	Dose-dependent effect		Active				
Cc1ccc2c(c1)/C(=C1/Nc3ccccc3C1=O)C(=O)N2	Dose-dependent effect	Non-Toxic	Active	30.8	Active	Non-Toxic	Active
O=C1Nc2cc(Br)ccc2/C1=C1/Nc2ccccc2/C1=N\O [6BIO]		Toxic	inactive				
COc1ccc2c(c1)C(=O)/C(=C1/C(=O)Nc3ccc(OC)cc31)N2	Dose-dependent effect	Non-Toxic	Active	30	Active	Non-Toxic	Active
O=C1Nc2cc(Br)ccc2/C1=C1/Nc2ccccc2C1=O			inactive				
O=C1Nc2ccc(Br)cc2/C1=C1/Nc2ccccc2C1=O	Dose-dependent effect	Non-Toxic	Active	36	Active	Non-Toxic	Active
CC(C)c1ccc2c(c1)/C(=C1/Nc3ccccc3C1=O)C(=O)N2	Dose-dependent effect						
COc1ccc2c(c1)C(=O)/C(=C1/C(=O)Nc3ccccc31)N2	Dose-dependent effect						
Cc1ccc2c(c1)/C(=C1/Nc3ccccc3/C1=N\O)C(=O)N2	Dose-dependent effect		Active				
COc1ccc2c(c1)N/C(=C1\C(=O)Nc3ccccc31)C2=O	Dose-dependent effect						
CCc1ccc2c(c1)/C(=C1/Nc3ccccc3C1=O)C(=O)N2	Dose-dependent effect						
COc1ccc2c(c1)NC(=O)/C2=C1\Nc2ccccc2C1=O	Dose-dependent effect						
CCc1ccc2c(c1)/C(=C1/Nc3ccccc3/C1=N\O)C(=O)N2	Dose-dependent effect		Active				
COc1ccc2c(c1)/C(=C1/Nc3ccc(OC)cc3/C1=N\O)C(=O)N2	Dose-dependent effect						
O=C1Nc2c(Br)cccc2/C1=C1/Nc2ccccc2C1=O			inactive				
COc1ccc2c(c1)C(=N\O)/C(=C1/C(=O)Nc3ccccc31)N2	Dose-dependent effect		Active				
O=C1Nc2ccccc2/C1=C1/Nc2ccccc2/C1=N\OCC1CO1 (stereo not given)	Dose-dependent effect						
O=C1Nc2ccccc2/C1=C1/Nc2ccc(Br)cc2/C1=N\O	Dose-dependent effect		Active				
COc1cccc2c1NC(=O)/C2=C1\Nc2ccccc2C1=O	Dose-dependent effect						
